Assay results from patent US6569638B1, “Method for screening compounds for the treatment of neoplasia” (Cell Pathways, Inc, priority 2000, dated 2003).
pEC50, pIC50: −log10 of the molar value. Like-named read-outs stand apart in the source and are kept apart here.

Columns and labels:
[1] = test system: SW-480 cell line; assay: Tumor cell growth inhibition; format: cell-based, human
From the text: In an alternate embodiment, the method of the present invention involves further determining whether the compound reduces the growth of tumor cells. Various cell lines can be used in the sample depending on the tissue to be tested. For example, these cell lines include: SW-480—colonic adenocarcinoma; HT-29—colonic adenocarcinoma, A-427—lung adenocarcinoma carcinoma; MCF-7—breast adenocarcinoma; and UACC-375—melanoma line; and DU145—prostrate carcinoma. Cytotoxicity data obtained using these cell lines are indicative of an inhibitory effect on neoplastic lesions. These cell lines are well characterized, and are used by the United States National Cancer Institute in their screening program for new anti-cancer drugs.
A compound's ability to inhibit tumor cell growth can be measured using the HT-29 human colon carcinoma cell line obtained from ATCC. […] After six days in culture, the cells are fixed by the addition of cold trichloroacetic acid to a final concentration of 10% and protein levels are measured using the sulforhodamine B (SRB) calorimetric protein stain assay as previously described by Skehan, P., Storeng, R., Scudiero, D., Monks, A., McMahon, J., Vistica, D., Warren, J. T., Bokesch, H., Kenney, S., and Boyd, M. R., “New Colorimetric Assay For Anticancer-Drug Screening,” J. Natl. Cancer Inst. […]
Preferably, an IC50 value is determined and used for comparative purposes. […]

[2] = format: in vivo; settings: for body weight gain: rat, in vivo
From the text: Thus, on a single-dose basis, Compound B is not acutely toxic.

[3] = test system: SW-480 colon adenocarcinoma cells; assay: Apoptosis induction determined by morphology; format: cell-based, human
From the text: Apoptosis occurs naturally during normal tissue turnover and during embryonic development of organs and limbs. Apoptosis also is induced by cytotoxic T-lymphocytes and natural killer cells, by ionizing radiation and by certain chemotherapeutic drugs. Inappropriate regulation of apoptosis is thought to play an important role in many pathological conditions including cancer, AIDS, or Alzheimer's disease, etc. Compounds can be screened for induction of apoptosis using cultures of tumor cells maintained under conditions as described above. Treatment of cells with test compounds involves either pre- or post-confluent cultures and treatment for two to seven days at various concentrations. Apoptotic cells are measured in both the attached and “floating” compartments of the cultures. Both compartments are collected by removing the supernatant, trypsinizing the attached cells, and combining both preparations following a centrifugation wash step (10 minutes, 2000 rpm). The protocol for treating tumor cell cultures with sulindac and related compounds to obtain a significant amount of apoptosis has been described in the literature. (See, Piazza, G. A., et al., Cancer Research, 55:31 10-16, 1995, which is incorporated herein by reference). The novel features include collecting both floating and attached cells, identification of the optimal treatment times and dose range for observing apoptosis, and identification of optimal cell culture conditions.
Following treatment with a compound, cultures can be assayed for apoptosis and necrosis by florescent microscopy following labeling with acridine orange and ethidium bromide. The method for measuring apoptotic cell number has previously been described by Duke & Cohen, “Morphological And Biochemical Assays Of Apoptosis,” Current Protocols In Immunology, Coligan et al., eds., 3.17.1-3.17.16 (1992, which is incorporated herein by reference).
For example, floating and attached cells can be collected by trypsinization and washed three times in PBS. Aliquots of cells can be centrifuged. […]

[4] = test system: SW-480 colon adenocarcinoma cells; assay: DNA fragmentation (Cell Death Detection ELISA); format: cell-based, human
Method: Samples are then analyzed.

[5] = test system: cGMP-specific PDE from HT29 cell extracts; assay: cGMP-specific PDE inhibition; format: biochemical, human
Method: (Thompson, W. J., Teraski, W. L., Epstein, P. M., Strada, S. J., Advances in Cyclic Nucleotide Research, 10:69-92, 1979, which is incorporated herein by reference). In brief, a solution of defined substrate ^3H-cGMP specific activity (0.2 μM; 100,000 cpm; containing 40 mM Tris-HCl (pH 8.0), 5 mM MgCl2 and 1 mg/mL BSA) is mixed with the drug to be tested in a total volume of 400 μl. The mixture is incubated at 30° C. for 10 minutes with isolated PDE of this invention. Reactions are terminated, for example, by boiling the reaction mixture for 75 seconds. After cooling on ice, 100 μl of 0.5 mg/mL snake venom (O. Hannah venom available from Sigma) is added and incubated for 10 minutes at 30° C. This reaction is then terminated by the addition of an alcohol, e.g. 1 mL of 100% methanol. Assay samples are applied to 1 mL Dowex 1-X8 column; and washed with 1 mL of 100% methanol. The amount of radioactivity in the breakthrough and the wash from the column is combined and measured with a scintillation counter. The degree of phosphodiesterase inhibition is determined by calculating the amount of radioactivity in drug-treated reactions and comparing against a control sample (a reaction mixture lacking the tested compound but with drug solvent).

[6] = test system: polyp and normal colonic tissues; assay: Apoptosis rates in paired biopsies of APC patients; format: in vivo, human

Row | Structure (SMILES) | pIC50 [1] | body weight gain ([2]; ip, 1000 mg/kg) | body weight gain ([2]; po, 4000 mg/kg) | intraperitoneal LD50 ([2]; rats) | oral LD50 ([2]; rats) [mg/kg] | signs of toxicity ([2]; rats, single oral doses up to and including 2000 mg/kg, 0.5% carboxy-methylcellulose vehicle) | % Apoptosis ([3]; 0.35 μM) [%] | % Apoptosis ([3]; 0.7 μM) [%] | % Apoptosis ([3]; 1.5 μM) [%] | pEC50 [4] | pIC50 [5] | apoptosis rates in polyp versus normal colonic tissues [6]
1 | CC1=C(CC(=O)NCc2ccccc2)c2cc(F)ccc2/C1=C\c1ccncc1.Cl [Compound B, (Z)-5-fluoro-2-methyl-(4-pyridylidene)-3-(N-benzyl)indenylacetamide hydrochloride] | 6.15 | reduced body weight gain | body weight gains were slightly reduced | greater than 1000 mg/kg | > 4000 | no observable signs of toxicity | 16 | 27 | 88 | 4.82 | 6.17 | 
2 | CC1=C(CC(=O)O)c2cc(F)ccc2/C1=C\c1ccc(S(C)(=O)=O)cc1 [exisulind, 5-fluoro-2-methyl-1-(p-methylsulfonylbenzylidene)-3-indenylacetic acid] |  |  |  |  |  |  |  |  |  |  |  | increased apoptosis rates in polyp, but not normal colonic tissues
